Reference: US20240343732A1, “COMPOUNDS FOR DEGRADATION OF CYCLIN-DEPENDENT KINASE 7(CDK7)” (QURIENT CO., LTD., priority 2021, published 2024)
pIC50: −log10 of the molar value.

What was measured:
CDK2 = target: T1, CDK2 (Homo sapiens, UniProt P24941); assay: Binding assay (FRET, LanthaScreen Eu, Tracer236) for CDK2; conditions: for pIC50: read-out: CDK2 IC50 (enzyme binding assay)
T1 construct: His; purchased Invitrogen PR4448B
Method: (§1) Inhibition activity of compound to CDK7 kinase was tested in a binding assay which was applied to the FRET (fluorescence resonance energy transfer) principle from the europium (Eu) donor fluorophore to the acceptor fluorophore on the kinase tracer. Test compounds were made to 1.125 mM of compound solution, and then this compound solution 4-fold serial diluted in 8 steps using an automated liquid handler (JANUS™, PerkinElmer). 80 nL/well of each diluted compound solution was added into the 384-well plate (Greiner, Cat #784075) first and 7.5 ul/well of working solution [5 nM of CDK7/CycH/MNAT1 (Invitrogen, Cat #PR6749B), 4 nM of Biotin anti-His Tag Antibody (Invitrogen, Cat #PV6090), and LanthaScreen® Eu-Streptavidin (Invitrogen, Cat #PV6025)] was added. After mixing the solution well, the same volume with the working solution of Tracer236 (Invitrogen, Cat #PV5592) was added into each well in the plate. The plate was incubated for 60 minutes at room temperature and then all the fluorescence were measured using Envision leader (Perkin Elmer, USA) [Laser as excitation light; […] as the first and the second emission filter]. Data was analysed using XL Fit software.
(§2) All of the synthesized compounds were screened in the above-mentioned assay procedure. To identify the inhibition activity of compounds for other CDKs including CDK1 (Invitrogen, Cat #PR4768C), CDK2 (Invitrogen, Cat #PR4448B) and CDK5 (Invitrogen, Cat #PR8543B) were tested using the same protocol under reasonable concentration of Tracer236 and kinases for each assay. The formula for the assay buffer summarized in below table.

CDK7/CycH/MNAT1 = target: T2, CDK7/CycH/MNAT1 (Homo sapiens, UniProt P50613); assay: Binding assay (FRET, LanthaScreen Eu, Tracer236) for CDK7; conditions: read-out: CDK7 IC50 (enzyme binding assay)
T2 construct: His; purchased Invitrogen PR6749B
T2 sequence (P50613 whole entry): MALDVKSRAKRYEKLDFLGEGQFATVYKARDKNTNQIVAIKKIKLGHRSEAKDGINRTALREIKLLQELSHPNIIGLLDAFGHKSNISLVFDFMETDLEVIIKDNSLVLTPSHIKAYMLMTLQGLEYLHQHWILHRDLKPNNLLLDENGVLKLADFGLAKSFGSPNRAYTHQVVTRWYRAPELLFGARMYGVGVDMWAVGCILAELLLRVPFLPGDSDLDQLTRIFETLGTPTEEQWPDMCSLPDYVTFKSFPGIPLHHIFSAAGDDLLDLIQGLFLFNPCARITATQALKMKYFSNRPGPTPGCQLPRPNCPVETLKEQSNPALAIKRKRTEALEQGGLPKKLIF
T2 sequence (P51946 whole entry partner): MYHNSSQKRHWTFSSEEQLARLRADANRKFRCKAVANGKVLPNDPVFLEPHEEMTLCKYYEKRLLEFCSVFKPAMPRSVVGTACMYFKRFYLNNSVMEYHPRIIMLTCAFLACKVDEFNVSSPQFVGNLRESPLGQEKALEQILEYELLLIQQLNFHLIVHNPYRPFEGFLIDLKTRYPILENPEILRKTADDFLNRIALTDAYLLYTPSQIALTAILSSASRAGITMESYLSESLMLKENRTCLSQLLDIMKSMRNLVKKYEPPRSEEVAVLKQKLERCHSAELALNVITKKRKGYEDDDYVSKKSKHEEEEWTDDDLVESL
T2 sequence (P51948 whole entry partner): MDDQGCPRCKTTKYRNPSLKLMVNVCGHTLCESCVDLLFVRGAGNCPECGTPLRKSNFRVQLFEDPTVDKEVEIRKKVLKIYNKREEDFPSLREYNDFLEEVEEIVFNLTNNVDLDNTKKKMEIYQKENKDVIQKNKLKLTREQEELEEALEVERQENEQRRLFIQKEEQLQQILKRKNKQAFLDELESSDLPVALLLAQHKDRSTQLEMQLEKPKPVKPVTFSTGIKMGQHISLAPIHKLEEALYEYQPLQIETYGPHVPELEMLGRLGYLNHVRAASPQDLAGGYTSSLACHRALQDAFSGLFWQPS
Method: as §1, §2

CDK5 = target: T3, CDK5 (Homo sapiens, UniProt Q00535); assay: Binding assay (FRET, LanthaScreen Eu, Tracer236) for CDK5; conditions: for pIC50: read-out: CDK5 IC50 (enzyme binding assay)
T3 construct: His; purchased Invitrogen PR8543B
T3 sequence (Q00535 whole entry): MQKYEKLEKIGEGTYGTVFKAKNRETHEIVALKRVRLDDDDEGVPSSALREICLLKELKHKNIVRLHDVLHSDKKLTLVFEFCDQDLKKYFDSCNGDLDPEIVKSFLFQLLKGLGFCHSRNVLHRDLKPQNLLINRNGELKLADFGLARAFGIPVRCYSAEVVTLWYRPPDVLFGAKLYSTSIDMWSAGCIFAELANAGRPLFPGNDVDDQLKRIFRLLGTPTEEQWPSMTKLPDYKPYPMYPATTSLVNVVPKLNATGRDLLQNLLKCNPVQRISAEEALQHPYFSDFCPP
T3 sequence (Q15078 99-307 partner limits assumed): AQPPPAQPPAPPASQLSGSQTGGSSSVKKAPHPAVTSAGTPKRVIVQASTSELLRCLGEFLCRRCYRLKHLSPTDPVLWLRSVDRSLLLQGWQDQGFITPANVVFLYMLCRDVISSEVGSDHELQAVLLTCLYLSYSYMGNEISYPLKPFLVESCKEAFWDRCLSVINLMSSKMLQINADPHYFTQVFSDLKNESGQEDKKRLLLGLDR
Method: as §1, §2

CDK1 = target: T4, CDK1 (Homo sapiens, UniProt P06493); assay: Binding assay (FRET, LanthaScreen Eu, Tracer236) for CDK1; conditions: for pIC50: read-out: CDK1 IC50 (enzyme binding assay)
T4 construct: His; purchased Invitrogen PR4768C
T4 sequence (P06493 whole entry): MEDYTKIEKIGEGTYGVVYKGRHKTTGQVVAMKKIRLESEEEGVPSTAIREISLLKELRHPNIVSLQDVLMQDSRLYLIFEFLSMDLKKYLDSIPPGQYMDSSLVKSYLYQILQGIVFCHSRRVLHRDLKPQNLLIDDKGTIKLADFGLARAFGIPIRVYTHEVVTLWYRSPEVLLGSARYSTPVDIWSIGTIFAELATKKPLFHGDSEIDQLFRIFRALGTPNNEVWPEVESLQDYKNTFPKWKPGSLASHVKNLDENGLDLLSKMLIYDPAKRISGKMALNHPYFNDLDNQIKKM
T4 sequence (P14635 whole entry partner): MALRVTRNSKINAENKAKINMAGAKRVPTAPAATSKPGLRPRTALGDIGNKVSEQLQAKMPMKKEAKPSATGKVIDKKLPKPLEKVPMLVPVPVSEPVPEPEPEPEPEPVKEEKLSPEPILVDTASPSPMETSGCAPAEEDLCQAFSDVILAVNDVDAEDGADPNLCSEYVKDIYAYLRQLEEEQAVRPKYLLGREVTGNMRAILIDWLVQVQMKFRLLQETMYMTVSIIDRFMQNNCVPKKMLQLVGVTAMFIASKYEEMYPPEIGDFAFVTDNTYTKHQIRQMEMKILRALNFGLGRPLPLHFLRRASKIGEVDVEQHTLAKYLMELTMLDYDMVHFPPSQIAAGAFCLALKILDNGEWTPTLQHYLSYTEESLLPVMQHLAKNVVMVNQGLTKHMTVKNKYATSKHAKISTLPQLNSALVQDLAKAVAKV
Method: as §1, §2

CDK7 protein = target: T5, CDK7 protein (Homo sapiens, UniProt P50613); assay: Western blot assay for CDK7 protein degradation in A2780 cells; format: cell-based; conditions: 24 hours; for DC50: read-out: Compound concentration that caused 50% CDK7 protein degradation in A2780 cells (DC50);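 as to all read-outs here: A is DC50 up to 100 nM B is 100 to 1000 nM C is above 1000 nM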
T5 construct: To verify endogenous CDK7 protein degradation; endogenous in cells; host or cells: A2780 (ECACC 93112519)
T5 sequence (P50613 whole entry): as the sequence (P50613 whole entry) above
Method: Human ovarian cancer cell line, A2780 (Cat #93112519) was obtained from ECACC. Cells were grown in RPMI-1640 media (Invitrogen, Cat #22400105) supplemented with 10% FBS (Hyclone, Cat #SH30084.03) and 1% penicillin/streptomycin (Hyclone, Cat #SV30010) and cultured at 37° C., 5% Co2 in a humidified chamber. All cell lines were routinely tested for mycoplasma.
To verify endogenous CDK7 protein degradation upon treatment of CDK7-specific degrader, the western blot assay was conducted a 24 hours' time period. 6×10^5 cells/well of A2780 cells were plated in 6-well plate. After 24 hours, the cells were treated with various concentrations of the compound corresponding range. DMSO solvent without compound served as a control and final DMSO concentration was not to exceed 0.1% of total volume. After 24 hours of incubation at 37° C., 5% Co2 incubator, cells were collected and lysed with 60 ul of lysis buffer. Collected lysates were incubated for 30 min on ice and collect supernatant through centrifugation at 12,000 rpm for 10 min at 4° C. The protein in lysates were quantified with BCA protein quantification kit (Pierce, Cat #23227) following manufacture's protocol. Cell lysates were diluted into 1 ug/ul of concentration with lysis buffer. 20 ug of protein was loaded to each well of 4˜12% Bis-Tris gel (Invitrogen, Cat #NP0336BOX) with MOPS running buffer (Invitrogen, Cat #NP0001). The proteins were transferred from gel to membrane and incubated with primary antibody as followed at 4° C. overnight; CDK7 (CST, Cat #2090S) and β-actin (Santa Cruz, Cat #sc-47778) 1:20,000. The signals were developed and acquired with ImageQuant™ LAS 4000.

Structure (SMILES) | CDK2/CDK7: Selectivity of CDK7 inhibition over CDK2 inhibition (CDK2) | pIC50 (CDK2) | pIC50 (CDK7/CycH/MNAT1) | CDK5/CDK7: Selectivity of CDK7 inhibition over CDK5 inhibition (CDK5) | pIC50 (CDK5) | CDK1/CDK7: Selectivity of CDK7 inhibition over CDK1 inhibition (CDK1) | pIC50 (CDK1) | DC50 (CDK7 protein) | Compound concentration that caused 50% CDK7 protein degradation in A2780 cells (DC50, nM) (CDK7 protein)
CC(C)c1cnn2c(NCc3ccccc3-c3nccc4cc(NCC5CCN(C6CCN(c7ccc8c(c7)C(=O)N(C7CCC(=O)NC7=O)C8=O)CC6)CC5)ccc34)nc(O[C@@H]3CCCNC3)nc12 (stereo partly shown) [Compound 31] | A (A indicates [fold] > 500) | < 6.00 | ≥ 7.00 | B (B indicates 50 < [fold] ≤ 500) | < 6.00 | A (A indicates [fold] > 500) | < 6.00 | ≤ 0.1 µM | –
Cc1ncsc1-c1ccc([C@H](C)NC(=O)[C@@H]2C[C@@H](O)CN2C(=O)[C@@H](NC(=O)CCOCCOCCOCCNc2ccc3c(-c4ccccc4CNc4nc(O[C@@H]5CCCNC5)nc5c(C(C)C)cnn45)nccc3c2)C(C)(C)C)cc1 [Compound 28] | A (A indicates [fold] > 500) | < 6.00 | ≥ 7.00 | A (A indicates [fold] > 500) | < 6.00 | A (A indicates [fold] > 500) | < 6.00 | ≤ 0.1 µM | –
Cc1ncsc1-c1ccc([C@H](C)NC(=O)[C@@H]2C[C@@H](O)CN2C(=O)[C@@H](NC(=O)CCOCCOCCNc2ccc3c(-c4ccccc4CNc4nc(O[C@@H]5CCCNC5)nc5c(C(C)C)cnn45)nccc3c2)C(C)(C)C)cc1 [Compound 17] | A (A indicates [fold] > 500) | < 6.00 | ≥ 7.00 | A (A indicates [fold] > 500) | < 6.00 | A (A indicates [fold] > 500) | < 6.00 | ≤ 0.1 µM | –
CC(C)c1cnn2c(NCc3ccccc3-c3nccc4cc(NCCOCCOCCNC(=O)CNc5cccc6c5CN(C5CCC(=O)NC5=O)C6=O)ccc34)nc(O[C@@H]3CCCNC3)nc12 (stereo partly shown) [Compound 14] | A (A indicates [fold] > 500) | < 6.00 | ≥ 7.00 | A (A indicates [fold] > 500) | < 6.00 | A (A indicates [fold] > 500) | < 6.00 | 0.1 to 1 µM | B or A
CC(C)c1cnn2c(NCc3ccccc3-c3nccc4cc(NCC5CCN(CC6CCN(c7ccc8c(c7)C(=O)N(C7CCC(=O)NC7=O)C8=O)CC6)CC5)ccc34)nc(N[C@@H]3CCCNC3)nc12 (stereo partly shown) [Compound 32] | A (A indicates [fold] > 500) | < 6.00 | ≥ 7.00 | B (B indicates 50 < [fold] ≤ 500) | < 6.00 | A (A indicates [fold] > 500) | < 6.00 | ≤ 0.1 µM | –
Cc1cc(C(C(=O)N2C[C@H](O)C[C@H]2C(=O)NCc2ccc(-c3scnc3C)cc2OCCOCCOCCNc2ccc3c(-c4ccccc4CNc4nc(O[C@@H]5CCCNC5)nc5c(C(C)C)cnn45)nccc3c2)C(C)C)on1 (stereo partly shown) [Compound 24] | A (A indicates [fold] > 500) | < 6.00 | ≥ 7.00 | A (A indicates [fold] > 500) | < 6.00 | A (A indicates [fold] > 500) | < 6.00 | ≤ 0.1 µM | –
Cc1cc([C@H](C(=O)N2C[C@H](O)C[C@H]2C(=O)NCc2ccc(-c3scnc3C)cc2OCCOCCOCCNc2ccc3c(-c4ccccc4CNc4nc(O[C@@H]5CCCNC5)nc5c(C(C)C)cnn45)nccc3c2)C(C)C)on1 [Compound 27] | B (B indicates 50 < [fold] ≤ 500) | < 6.00 | 6.00 to 7.00 | B (B indicates 50 < [fold] ≤ 500) | < 6.00 | B (B indicates 50 < [fold] ≤ 500) | < 6.00 | ≤ 0.1 µM | –
CC(C)c1cnn2c(NCc3ccccc3-c3nccc4cc(NC(=O)COCCOCCOCCNC(=O)CNc5cccc6c5C(=O)N(C5CCC(=O)NC5=O)C6=O)ccc34)nc(O[C@@H]3CCCNC3)nc12 (stereo partly shown) [Compound 9] | A (A indicates [fold] > 500) | < 6.00 | ≥ 7.00 | A (A indicates [fold] > 500) | < 6.00 | A (A indicates [fold] > 500) | < 6.00 | – | B or A
CC(C)c1cnn2c(NCc3ccccc3-c3nccc4cc(N5CCN(CC6CCN(c7ccc8c(c7)C(=O)N(C7CCC(=O)NC7=O)C8=O)CC6)CC5)ccc34)nc(O[C@@H]3CCCNC3)nc12 (stereo partly shown) [Compound 33] | A (A indicates [fold] > 500) | < 6.00 | ≥ 7.00 | B (B indicates 50 < [fold] ≤ 500) | < 6.00 | A (A indicates [fold] > 500) | < 6.00 | ≤ 0.1 µM | –
Cc1ncsc1-c1ccc(CNC(=O)[C@@H]2C[C@@H](O)CN2C(=O)[C@@H](NC(=O)C2(F)CC2)C(C)(C)C)c(OCCCCCCCCNc2ccc3c(-c4ccccc4CNc4nc(O[C@@H]5CCCNC5)nc5c(C(C)C)cnn45)nccc3c2)c1 [Compound 22] | A (A indicates [fold] > 500) | < 6.00 | 6.00 to 7.00 | B (B indicates 50 < [fold] ≤ 500) | < 6.00 | A (A indicates [fold] > 500) | < 6.00 | 0.1 to 1 µM | B or A
